What was measured:
Canola = assay: Pot experiment: Zn fertiliser uptake by canola on alkaline and calcareous soils; type: in vivo, Canola (variety Pinnacle); settings: 21 days growth, chelate rates PEI 0.043, EDTA 0.37 μM/g soil, FIG. 1
Description: A pot experiment was designed to test the availability of Zn to Canola when applied to calcareous and alkaline soils either as ZnSO4.7H2O or chelated with PEI or EDTA.
Soil samples were collected from field sites known to be Zn responsive at Streaky Bay, South Australia and Birchip, Victoria (Table 1). Topsoils from each location were collected, oven dried and passed through a 2 mm sieve. The ^65Zn labelled experimental fertilisers were mixed with 20 g of soil, which was banded between 100 g of the unfertilised bulk soil. Total nutrient application equated to (μg/g soil) P 60, N 27, applied as TGMAP, and Zn 0.2 as ZnSO4.7H2O. Chelate rates were based on the concentrations required to complex 100% of the Zn in the fertiliser solution. Rates varied depending on the stoichiometry of the Zn-ligand complexes. GEOCHEM was used to predict the degree of chelation in the EDTA fertiliser solution. […]
Two pre-germinated Canola seeds (variety Pinnacle) were transferred to each pot. […] Plant digests were analysed for ^65Zn by gamma spectroscopy and for total nutrient contents by ICP-OES.
Data for shoot dry weight, shoot nutrient concentrations and Zn fertiliser uptake were analysed by analysis of variance (ANOVA). Significance between means was determined using the Least Significant Difference (LSD) test.

canola roots = assay: Uptake of 65Zn from ice-cold solutions into canola roots (apoplast and symplast); type: in vivo; settings: 30 minutes, FIG. 4
Experimental: Each treatment was replicated in triplicate. After 30 minutes the canola roots were removed from the uptake solutions and rinsed with MilliQ water. Those roots used to measure symplastic absorption of Zn were transferred to ice-cold desorption solutions for 30 minutes in order to desorb apoplastically bound Zn. Desorption solutions contained 2 mM Na-MES (pH 6.0), 5 mM CaCl2 and 60 μM ZnCl2. Canola plants were separated into roots and shoots, blotted dry and weighed. Roots were transferred into radioactivity counting vials, to which 4 ml of 5M HNO3 was added. Samples were left overnight to solubilise the cell contents before the ^65Zn contents of roots were determined by gamma spectroscopy.

Canola seedlings = settings: 1 μM ZnSO4; 24-hour uptake; FIG. 6, FIG. 7
Experimental: Canola seedlings (Brassica napus var. Pinnacle) were pre-germinated on filter paper moistened with deionised water. On day 6, the seedlings were transferred to complete nutrient solution and moved into the glasshouse. The nutrient solution contained Ca (3.55 mM), Mg (1.45 mM), NO3^− (8.1 mM), H2PO4^− (0.2 mM), Cl (10 μM), Na (1.1 mM), K (1.2 mM), SO4 (1.45 mM), H3BO3 (30 μM), MoO4^2− (0.2M), FeEDDHA (25 μM), Mn (10 μM), Zn (1 μM), Cu (1 μM), buffered at pH 6.0 with 2 mM MES (2-morpholinoethanesulphonic acid, 50% as potassium salt) (Kupper et al, 2000). After 14 days, the canola plants, three per pot, were transferred to pre-treatment solution for 24 hours. Pre-treatment solution contained 2 mM NaMES (pH 6.0) and 0.5 mM CaCl2. Following pre-treatment, the plants were used in the ^65Zn uptake experiments.
Pre-treated canola seedlings were transferred to uptake solutions containing 2 mM KMES (pH 6.0), 0.5 mM CaCl2 and 1 μM ZnSO4 as either the metal salt or chelated with EDTA (control) or the eight forms of PEI described above. […]
After a 24-hour uptake period, canola shoots were harvested, weighed and digested in concentrated HNO3 at 140° C. Digest solutions were transferred to radioactivity counting vials for ^65Zn measurement by gamma spectroscopy. […]

Compound: O=C(O)CN(CCN(CC(=O)O)CC(=O)O)CC(=O)O [EDTA, ethylenediaminetetraacetic acid]
- Total Zn uptake by canola (Canola; Birchip Sodosol): ineffective
- Total Zn uptake by canola (Canola; Streaky Bay calcareous grey sandy loam): ineffective
- Uptake of Zn into the root symplast (canola roots; 10 μM ZnCl2 chelated by 10 μM EDTA or 5 μM PEI): not readily absorbed
- Uptake of Zn into the root apoplast (canola roots; 10 μM ZnCl2 chelated by 10 μM EDTA): not readily absorbed
- Zn absorption and translocation to canola shoots (Zn transfer coefficient) (Canola seedlings): not readily absorbed and translocated to canola shoots
